Laboratory results taken from patent US9980986B2, “Methods of producing pancreatic hormones” (ViaCyte, Inc., priority 2006, dated 2018).

What was measured:
Type in all cases: cell-based
Human ESCs [1] = assay: hESC differentiation to insulin-expressing cells using noggin without exogenous retinoids, real-time PCR
Method: Human ESCs were differentiated to definitive endoderm cells via treatment with activin A (100 ng/ml) and Wnt3a (25 ng/ml) in RPMI+0% FBS for the first day and then for 2 more days with activin A (100 ng/ml) alone in RPMI+0.2% v/v FBS. Definitive endoderm was differentiated to foregut endoderm by treatment with KGF (50 ng/ml) and KAAD-cyclopamine (0.25 μM) for 3 days in RPMI+2% v/v FBS. Differentiation then proceeded in DMEM+1% v/v B27 supplement containing KGF (50 ng/ml) and KAAD-cyclopamine (0.25 μM) for one day followed by 5 additional days of the same with or without the addition of noggin (100 ng/ml). The B27 supplement used was either with (B27+) or without (B27-) vitamin A. On days 13, 14 and 15 of differentiation, the KGF was removed but the KAAD-cyclopamine (0.25 μM) and noggin (when used) remained in the culture medium. The differentiation medium for days 16-19 consisted of CMRL+1% v/v B27 (with or without vitamin A as in previous conditions) with no additional factors. Cultures were sampled in duplicate on days 3, 6, 9, 12, 15 and 19 of differentiation and analyzed for expression of pancreatic markers using real-time PCR.

[2] = system: Human embryonic stem cells; assay: PDX1 protein and mRNA expression under different media conditions; conditions: insulin about 0.2-20 μg/ml or insulin-like growth factor about 10-500 ng/ml
Method: Human embryonic stem cells were differentiated in RPMI medium containing activin A (100 ng/ml) for 5 days. The FBS concentrations changed from 0% for the first 24 hours followed by 0.2% for the next 24 hrs and then to 2% for the remaining 3 days. During the next 4 days, the plates were subjected to different media conditions. They were either incubated in i) RPMI with 2% FBS and activin A (100 ng/ml), ii) RPMI with 2% FBS, activin A (25 ng/ml) and retinoic acid, iii) CMRL with 0.2% FBS and B27 supplement (1:100), activin A (25 ng/ml) and retinoic acid, and iv) CMRL with 0.2% FBS and B27 supplement (1:100), activin A (25 ng/ml), retinoic acid and exendin (40 ng/ml). The concentration of retinoic acid changed from 2 μM for 48 hours followed by 1 μM for 24 hours to 0.2 μM for the last 24 hours. The cells were harvested for protein and mRNA analyses on days 7, 8 and 9.
Without sufficient insulin signaling, PDX1 mRNA was expressed without significant translation into PDX1 protein (FIGS. 4A-4B). The base medium can be RPMI, CMRL, OptiMEM or DMEM with or without 2% FBS. If the base medium is supplemented with sufficient insulin/IGF and FGF10, PDX1 protein will be expressed.

[3] = system: Human embryonic stem cell lines; assay: hESC differentiation by 5-step 17-day protocol (treatments i-iv), gene expression by real-time quantitative PCR; conditions: KAAD-cyclopamine maintained in the presence of retinoic acid during step 3
Method: Human embryonic stem cell lines were differentiated for 17 days via a 5-step protocol to produce pancreatic islet hormone-expressing cells. […] Step 2 comprised 3 days differentiation in RPMI with 2% FBS containing one of the following: (a) 100 ng/mL activin A (treatment i), (b) no exogenous growth factors (treatment ii), or (c) 50 ng/mL FGF10 and 0.5 μM KAAD-cyclopamine (treatments iii and iv). Step 3 comprised 3 days differentiation in CMRL with B27 supplement (1:100) containing either (a) 2 μM retinoic acid (treatments i-iii) or (b) 2 μM retinoic acid and 0.5 μM KAAD-cyclopamine (treatment iv). Steps 4 and 5 were the same for all conditions (treatments i-iv). Step 4 comprised 2 days differentiation in CMRL with B27 supplement (1:100) containing 1 μM DAPT and 40 ng/mL exendin 4. Step 5 comprised 5 days differentiation in CMRL with B27 supplement (1:100) containing 40 ng/mL exendin 4. Duplicate samples were taken from each plate at multiple time points and gene expression was analyzed by real-time quantitative PCR.

[4] = system: Human embryonic stem cells; assay: hESC 16-day 4-step or 5-step differentiation time course, real-time quantitative PCR
Method: Human embryonic stem cells were differentiated for 16 days via either a 4-step or 5-step protocol to achieve islet hormone-expressing cells. The first step comprised 3 days differentiation in activin A (100 ng/mL) to robustly produce DE (D'Amour, K., et al., Nature Biotechnology 23, 1534-1541, (2005)). Step 2 comprised 3 days differentiation in RPMI with 2% FBS containing FGF10 (50 ng/mL) and KAAD-cyclopamine (0.2 μM). In the 4-step protocol, step 3 comprised 4 days differentiation in CMRL with B27 supplement (1:100) containing FGF10 (50 ng/mL), KAAD-cyclopamine (0.2 μM), retinoic acid (2 μM), and DAPT (1 μM). In the 5-step protocol, this 4 day period was broken into two separate treatments in the same base media. For 2 days the media contained FGF10 (50 ng/mL), KAAD-cyclopamine (0.2 μM), and retinoic acid (2 μM). During the subsequent 2 days, the FGF10 was removed and the gamma-secretase inhibitor DAPT (1 μM) was added. The last step of both protocols comprised 6 days differentiation in DMEM with B27 supplement (1:100) containing nicotinamide (10 mM), exendin 4 (40 ng/mL), hepatocyte growth factor (HGF 25 ng/mL), and insulin-like growth factor (IGF)-1 (50 ng/mL). Duplicate samples were taken from each plate at multiple time points and gene expression was analyzed by real-time quantitative PCR.

[5] = system: Human embryonic stem cells; assay: hESC 19-day 5-step differentiation with varying DAPT concentrations, real-time quantitative PCR; conditions: DAPT 0, 1, 3 or 10 μM for 2 days in step 4
Method: Human embryonic stem cells were differentiated for 19 days via a 5-step protocol to achieve islet hormone-expressing cells. The first step comprised 5 days differentiation in activin A (100 ng/mL) to robustly produce DE (D'Amour, K., et al., Nature Biotechnology 23, 1534-1541, (2005)). Step 2 comprised 2 days differentiation in RPMI with 2% FBS containing FGF10 (50 ng/mL) and KAAD-cyclopamine (0.5 μM). Step 3 comprised 4 days differentiation in CMRL with B27 supplement (1:100) containing FGF10 (50 ng/mL), KAAD-cyclopamine (0.2 μM), and retinoic acid (1 μM). The fourth step comprised 2 days treatment with CMRL with B27 supplement (1:100) containing exendin 4 (40 ng/mL) and with varying concentrations of the gamma secretase inhibitor DAPT (0 μM, 1 μM, 3 μM, or 10 μM). The last step comprised 6 days differentiation in DMEM with B27 supplement (1:100) containing nicotinamide (10 mM), exendin 4 (40 ng/mL), and insulin-like growth factor (IGF)-1 (50 ng/mL). Duplicate samples were taken from each plate and gene expression was analyzed by real-time quantitative PCR.

[6] = system: Human embryonic stem cells; assay: hESC 17-day 4-step differentiation with or without retinoic acid, real-time quantitative PCR; conditions: retinoic acid about 0.1-5 μM for at least about 1 day
Method: Human embryonic stem cells were differentiated for 17 days via a 4-step protocol to achieve islet hormone-expressing cells. The first step comprised 5 days differentiation in activin A (100 ng/mL) to robustly produce DE (D'Amour, K., et al., Nature Biotechnology 23, 1534-1541, (2005)). Step 2 comprised 2 days differentiation in RPMI with 2% FBS containing FGF10 (50 ng/mL) and KAAD-cyclopamine (1 μM) followed by 2 more days that also contained DAPT (1 μM). Step 3 comprised 5 days differentiation in CMRL with B27 supplement (1:100) containing FGF10 (50 ng/mL), KAAD-cyclopamine (1 μM), DAPT (1 μM) and either with or without the addition of retinoic acid (1 μM). The fourth step comprised 4 days differentiation in CMRL with B27 supplement (1:100) containing nicotinamide (10 mM), exendin 4 (50 ng/mL), hepatocyte growth factor (HGF 25 ng/mL), and insulin-like growth factor (IGF)-1 (50 ng/mL). Duplicate samples were taken from each plate at multiple time points and gene expression was analyzed by real-time quantitative PCR.

Human ESCs [7] = assay: hESC differentiation using combination of noggin and retinoic acid, QPCR
Method: Human ESCs were differentiated to definitive endoderm via treatment with activin A (100 ng/ml) and Wnt3a (25 ng/ml) in RPMI+0% FBS for the first day and then for 2 more days with activin A (100 ng/ml) alone in RPMI+0.2% v/v FBS. Definitive endoderm was differentiated to foregut endoderm by treatment with KGF (50 ng/ml) and KAAD-cyclopamine (0.25 μM) for 3 days in RPMI+2% v/v FBS. Differentiation then proceeded for 3 days in DMEM+1% v/v B27 supplement containing KAAD-cyclopamine (0.25 μM) and all-trans retinoic acid (0.1 μM or 2 μM) with or without the addition of noggin (0, 30 or 100 ng/ml). This was followed by a 2 day treatment period with the gamma-secretase inhibitor DAPT (1 μM) provided in DMEM+1% v/v B27 and subsequently the cells were cultured in CMRL+1% v/v B27 with no additional growth factors.

[8] = system: Human embryonic stem cells; assay: hESC 21-day 4-step differentiation with three step-1 conditions, real-time quantitative PCR; conditions: activin A 100 ng/ml, or follistatin 50 ng/ml and noggin 100 ng/ml
Method: Human embryonic stem cells were differentiated for 21 days via a 4-step protocol to achieve islet hormone-expressing cells. Three different conditions were used for the first step after which all plates received the identical treatment. The first step comprised 5 days differentiation under one of the following conditions: i) activin A (100 ng/ml) to robustly produce DE (D'Amour, K., et al., Nature Biotechnology 23, 1534-1541, (2005)), ii) 2% FBS with no exogenous growth factors, thereby producing mesoderm and extraembryonic endoderm, or iii) follistatin (50 ng/ml) and noggin (100 ng/ml), thereby producing neural ectoderm. Step 2 comprised 3 days differentiation in RPMI with 2% FBS containing FGF10 (50 ng/mL) and KAAD-cyclopamine (1 μM). Step 3 comprised 5 days differentiation in CMRL with B27 supplement (1:100) containing FGF10 (50 ng/mL), KAAD-cyclopamine (1 μM), retinoic acid (2 μM), and DAPT (1 μM). The fourth step consisted of 8 days differentiation in DMEM with B27 supplement (1:100) containing nicotinamide (10 mM), exendin 4 (40 ng/mL), hepatocyte growth factor (HGF-25 ng/mL), and insulin-like growth factor (IGF)-1 (50 ng/mL). Duplicate samples were taken from each plate at multiple time points and gene expression was analyzed by real-time quantitative PCR.

[9] = noggin 100 ng/ml, B27 with or without vitamin A

With CC1=C(/C=C/C(C)=C/C=C/C(C)=C/CO)C(C)(C)CCC1 [vitamin A, retinol, reference compound] the “Magnitude of pancreatic hormone expression” value (Human ESCs [1]; B27 supplement with versus without vitamin A) was “enhanced by the presence of vitamin A”.

For insulin: insulin as medium supplement, the “Effect on PDX1 protein expression” value [2] was “promotes the expression of PDX1 protein”.

For CC1=C2C[C@H]3[C@@H](CC=C4CC(=O)CC[C@@]43C)[C@@H]2CC[C@]12O[C@@H]1C[C@H](C)CN(CCNC(=O)CCCCCNC(=O)CCc3ccccc3)[C@H]1[C@H]2C [KAAD-cyclopamine], the “Increase of performance of endocrine differentiation relative to treatment iii” value [3] was 2 fold.

With C[C@H](NC(=O)Cc1cc(F)cc(F)c1)C(=O)N[C@H](C(=O)OC(C)(C)C)c1ccccc1 [DAPT, N—[N-(3,5-difluorophenacetyl)-L-alanyl]-S-phenylglycine t-butyl ester] the “Effect on NGN3 and PAX4 expression” value ([4]; 2-4 day application of DAPT in terminal days of RA addition or after RA withdrawal) was “transient induction of NGN3 and PAX4 expression” and the “Effect on expression of pancreatic hormones and transcription factors after 19 days” value [5] was “very little to no insulin, glucagon, somatostatin or principal pancreatic transcription factors were produced in the absence of DAPT”.

With CC1=C(/C=C/C(C)=C/C=C/C(C)=C/C(=O)O)C(C)(C)CCC1 [retinoic acid, all-trans retinoic acid] the “Effect on insulin expression” value [6] was “insulin was not expressed unless retinoic acid was applied” and the “Effect on HNF6 and PDX1 expression” value ([4]; retinoic acid 2 μM in step 3) was “robustly increased expression of HNF6 and PDX1”.

In the case of insulin-like growth factor, the “Effect on PDX1 protein expression” value [2] is reported as “promotes the expression of PDX1 protein”.

B1: noggin: recombinant human Noggin (protein, UniProt Q13253 28-232, looked up)
Noggin: QHYLHIRPAPSDNLPLVDLIEHPDPIFDPKEKDLNETLLRSLLGGHYDPGFMATSPPEDRPGGGGGAAGGAEDLAELDQLLRQRPSGAMPSEIKGLEFSEGLAQGKKQRLSKKLRRKLQMWLWSQTFCPVLYAWNDLGSRFWPRYVKVGSCFSKRSCSVPEGMVCKPSKSVHLTVLRWRCQRRGGQRCGWIPIQYPIISECKCSC
In the case of B1, the “Expression levels of PDX1 at days 9 or 11” value (Human ESCs [7]; noggin 0, 30 or 100 ng/ml with retinoic acid 0.1 μM or 2 μM) is reported as “very little effect”, the “Expression of NGN3 at day 9” value (Human ESCs [7]; noggin added to low dose RA (0.1 μM)) is reported as “dramatically enhanced” and the “Expression of pancreatic hormones INS, GCG, SST and GHRL” value (Human ESCs [1]; noggin 100 ng/ml) is reported as “also dependent on the presence of noggin”. The “Induction of PDX1 gene expression” value (Human ESCs [1]; [9]) was “not dependent on either noggin treatment” and the “NGN3 expression induced at day 12 (pancreatic endocrine differentiation)” value (Human ESCs [1]; [9]) was “highly dependent on the presence of noggin”.

B2: activin A: growth factor of the TGFβ superfamily (protein, UniProt P08476 311-426, looked up)
Inhibin beta A chain: GLECDGKVNICCKKQFFVSFKDIGWNDWIIAPSGYHANYCEGECPSHIAGTSGSSLSFHSTVINHYRMRGHSPFANLKSCCVPTKLRPMSMLYYDDGQNIIKKDIQNMIVEECGCS
In the case of B2, the “Lineage marker expression at 5 days of differentiation (step 1)” value [8] is reported as “robust production of definitive endoderm”.
